Measured values reported in the NIST ThermoML archive (doi:10.1021/je900966r).
± gives the expanded uncertainty stated by the source.

Tests used:
[1] = mn = molality of the nth substance listed, in mol/kg; conditions: 101 kPa, Liquid
[2] = refractive index (Na D-line) (dimensionless); mn = molality of the nth substance listed, in mol/kg; conditions: 298.15 K, 101 kPa, Liquid, Standard Abbe refractometry

OC[C@@H](O)[C@@H](O)[C@H](O)[C@H](O)CO [mannitol] + O
mass density [kg/m3], [1]
Conditions	m1 = 0.1	m1 = 0.1499	m1 = 0.1999	m1 = 0.25	m1 = 0.3	m1 = 0.35	m1 = 0.4
293.15 K	1004.39 ± 0.21	1007.5 ± 0.22	1010.61 ± 0.22	1013.69 ± 0.23	1016.75 ± 0.24	1019.74 ± 0.24	1022.71 ± 0.25
298.15 K	1003.21 ± 0.21	1006.3 ± 0.21	1009.4 ± 0.22	1012.46 ± 0.23	1015.48 ± 0.23	1018.46 ± 0.24	1021.43 ± 0.25
303.15 K	1001.79 ± 0.2	1004.87 ± 0.21	1007.95 ± 0.22	1010.98 ± 0.22	1013.99 ± 0.23	1016.97 ± 0.24	1019.92 ± 0.24
308.15 K	1000.12 ± 0.2	1003.19 ± 0.21	1006.23 ± 0.21	1009.26 ± 0.22	1012.25 ± 0.23	1015.19 ± 0.23	1018.13 ± 0.24
313.15 K	998.283 ± 0.2	1001.33 ± 0.2	1004.36 ± 0.21	1007.37 ± 0.22	1010.33 ± 0.22	1013.26 ± 0.23	1016.18 ± 0.24

[2]
Conditions	refractive index
m1 = 0.1	1.3358 ± 0.0007
m1 = 0.1499	1.337 ± 0.0007
m1 = 0.1999	1.3385 ± 0.0007
m1 = 0.25	1.3396 ± 0.0007
m1 = 0.3	1.341 ± 0.0007
m1 = 0.35	1.3422 ± 0.0007
m1 = 0.4	1.343 ± 0.0007

CCCO [propan-1-ol] + O
mass density [kg/m3], [1]
Conditions	m1 = 0.1001	m1 = 0.15	m1 = 0.2	m1 = 0.3	m1 = 0.4	m1 = 0.5
293.15 K	996.609 ± 0.2	996.479 ± 0.2	996.336 ± 0.21	995.903 ± 0.21	994.27 ± 0.21	993.364 ± 0.21
298.15 K	995.441 ± 0.21	995.293 ± 0.21	995.163 ± 0.21	994.694 ± 0.21	993.072 ± 0.21	992.148 ± 0.21
303.15 K	994.029 ± 0.21	993.828 ± 0.21	993.747 ± 0.21	993.242 ± 0.21	991.629 ± 0.22	990.687 ± 0.22
308.15 K	992.397 ± 0.21	992.237 ± 0.21	992.113 ± 0.22	991.569 ± 0.22	989.962 ± 0.22	989.004 ± 0.22
313.15 K	990.564 ± 0.22	990.399 ± 0.22	990.278 ± 0.22	989.694 ± 0.22	988.093 ± 0.22	987.114 ± 0.23

[2]
Conditions	refractive index
m1 = 0.1001	1.3331 ± 0.0007
m1 = 0.15	1.3338 ± 0.0007
m1 = 0.2	1.3341 ± 0.0007
m1 = 0.3	1.3344 ± 0.0007
m1 = 0.4	1.3349 ± 0.0007
m1 = 0.5	1.3353 ± 0.0007

CC(C)O [propan-2-ol] + O
mass density [kg/m3], [1]
Conditions	m1 = 0.1	m1 = 0.1501	m1 = 0.1999	m1 = 0.3	m1 = 0.3998	m1 = 0.5
293.15 K	996.544 ± 0.15	995.924 ± 0.15	995.4 ± 0.15	994.591 ± 0.15	993.922 ± 0.15	993.065 ± 0.15
298.15 K	995.386 ± 0.15	994.764 ± 0.15	994.22 ± 0.15	993.429 ± 0.15	992.857 ± 0.15	991.893 ± 0.15
303.15 K	993.986 ± 0.15	993.358 ± 0.15	992.795 ± 0.15	992.018 ± 0.15	991.441 ± 0.15	990.472 ± 0.15
308.15 K	992.365 ± 0.15	991.731 ± 0.15	991.148 ± 0.15	990.384 ± 0.15	989.702 ± 0.16	988.826 ± 0.16
313.15 K	990.542 ± 0.15	989.901 ± 0.15	989.299 ± 0.15	988.545 ± 0.16	987.816 ± 0.16	986.979 ± 0.16

[2]
Conditions	refractive index
m1 = 0.1	1.3329 ± 0.0007
m1 = 0.1501	1.3335 ± 0.0007
m1 = 0.1999	1.3338 ± 0.0007
m1 = 0.3	1.3341 ± 0.0007
m1 = 0.3998	1.3345 ± 0.0007
m1 = 0.5	1.335 ± 0.0007

O [water] + OC[C@@H](O)[C@@H](O)[C@H](O)[C@H](O)CO
Conditions	refractive index
[2], m2 = 0	1.3326 ± 0.0007
